Measurements published in ChEMBL document CHEMBL6120997, “Macrocyclic Compounds with Diverse Skeletons from the Roots of Myrica nana and Their Spasmolytic Activity” (J Nat Prod, 2025).
The source made the active and inactive calls. No cut-off for these calls is given here.

Key:
[1] = tested on: Ileum; assay: Ex vivo spasmolytic activity in ACh-induced contractions in Sprague-Dawley rat ileum incubated for 5 mins; format: functional, tissue-based
[2] = tested on: Ileum; assay: Ex vivo spasmolytic activity in ACh-induced contractions in Sprague-Dawley rat ileum incubated for 5 mins in presence of TEA; format: functional, tissue-based
[3] = tested on: Ileum; assay: Ex vivo spasmolytic activity in ACh-induced contractions in Sprague-Dawley rat ileum incubated for 5 mins in presence L-NAME; format: functional, tissue-based
[4] = tested on: Ileum; assay: Ex vivo spasmolytic activity in ACh-induced contractions in Sprague-Dawley rat ileum at 0.5 to 8 uM incubated for 5 mins in presence of 4-AP relative to control; format: functional; conditions: dose 0.5-8 µM
[5] = tested on: Ileum; assay: Ex vivo spasmolytic activity in ACh-induced contractions in Sprague-Dawley rat ileum at 0.5 to 8 uM incubated for 5 mins in presence of CsCl relative to control; format: functional; conditions: dose 0.5-8 µM
[6] = tested on: Ileum; assay: Ex vivo spasmolytic activity in ACh-induced contractions in Sprague-Dawley rat ileum incubated for 5 mins in presence of CsCl; format: functional, tissue-based
[7] = tested on: Ileum; assay: Ex vivo spasmolytic activity in ACh-induced contractions in Sprague-Dawley rat ileum at 0.5 to 8 uM incubated for 5 mins relative to control; format: functional; conditions: dose 0.5-8 µM
[8] = tested on: Ileum; assay: Ex vivo spasmolytic activity in CaCl2-induced contractions in Sprague-Dawley rat ileum at 1 to 2 uM incubated for 15 mins; format: functional, tissue-based; conditions: dose 1-2 µM
[9] = tested on: Ileum; assay: Ex vivo spasmolytic activity in ACh-induced contractions in Sprague-Dawley rat ileum incubated for 5 mins in presence of GLIB; format: functional, tissue-based
[10] = tested on: Ileum; assay: Ex vivo spasmolytic activity in ACh-induced contractions in Sprague-Dawley rat ileum at 0.5 to 8 uM incubated for 5 mins in presence of TEA relative to control; format: functional; conditions: dose 0.5-8 µM
[11] = tested on: Ileum; assay: Ex vivo spasmolytic activity in ACh-induced contractions in Sprague-Dawley rat ileum at 0.5 to 8 uM incubated for 5 mins in presence ODQ relative to control; format: functional; conditions: dose 0.5-8 µM
[12] = tested on: Ileum; assay: Ex vivo spasmolytic activity in ACh-induced contractions in Sprague-Dawley rat ileum at 0.5 to 8 uM incubated for 5 mins in presence L-NAME relative to control; format: functional; conditions: dose 0.5-8 µM
[13] = tested on: Ileum; assay: Ex vivo spasmolytic activity in ACh-induced contractions in Sprague-Dawley rat ileum at 0.5 to 8 uM incubated for 5 mins in presence of GLIB relative to control; format: functional; conditions: dose 0.5-8 µM
[14] = tested on: Ileum; assay: Ex vivo spasmolytic activity in ACh-induced contractions in Sprague-Dawley rat ileum at 2 uM incubated for 5 mins; format: functional, tissue-based
[15] = tested on: Ileum; assay: Ex vivo spasmolytic activity in ACh-induced contractions in Sprague-Dawley rat ileum incubated for 5 mins in presence ODQ; format: functional, tissue-based
[16] = tested on: Ileum; assay: Ex vivo spasmolytic activity in ACh-induced contractions in Sprague-Dawley rat ileum incubated for 5 mins in presence of 4-AP; format: functional, tissue-based

Row | SMILES | EC50 [1] [nM] | other results
1 | COc1c2ccc(c1O[C@@H]1O[C@H](CO)[C@@H](O)[C@H](O)[C@H]1O)CCCCC(O)CCc1ccc(O)c(c1)O2 (stereo partly drawn) | 3600 | –
2 | COc1c2cc(c(O[C@@H]3O[C@H](CO)[C@@H](O)[C@H](O)[C@H]3O)c1OC)CCCC[C@@H](O)CCc1ccc(O)c-2c1 | 3200 | –
3 | CCN(CC)CCOC(=O)C1(C2CCCCC2)CCCCC1 [DICYCLOMINE] | 600 | –
4 | COc1c2ccc(c1O)CCCCC(=O)CCc1ccc(O)c(c1)O2 | 3800 | –
5 | COc1cc2cc(c1OC)-c1cc(ccc1O)CCC(=O)CCCC2 | 5000 | –
6 | COc1c2cc(c(O)c1OC)CCCC[C@@H](O)CCc1ccc(O)c-2c1 | 2900 | –
7 | COc1c2cc(c(O[C@@H]3O[C@H](CO)[C@@H](O)[C@H](O)[C@H]3O)c1OC)CCCC[C@@H](OC(C)=O)CCc1ccc(O)c-2c1 | 2800 | –
8 | COc1c2cc(c(OC)c1O)-c1cc(ccc1O)CC[C@H](O)CCCC2 | 1500 | –
9 | COc1c2cc(c(OC)c1OC)-c1cc(ccc1O)C[C@@H](O)[C@@H](O)CCCC2 | 2800 | –
10 | COc1cc2cc(c1OC)-c1cc(ccc1O)C[C@H](O)C(=O)CCC2 | 1400 | EC50 [2]: 1500 nM; EC50 [3]: 5100 nM; Emax [4]: 71.9%; Emax [5]: 82.7%; EC50 [6]: 1600 nM; Emax [7]: 79.8%; Activity [8]: Active; EC50 [9]: 1700 nM; Emax [10]: 60.8%; Emax [11]: 81.7%; Emax [12]: 43%; Emax [13]: 84.9%; Activity [14]: Active; Activity Less Than Dichloromethane; EC50 [15]: 1600 nM; EC50 [16]: 1900 nM
11 | COc1c2cc(c(O[C@@H]3O[C@H](CO)[C@@H](O)[C@H](O)[C@H]3O)c1OC)CCCCC(=O)[C@@H](O)Cc1ccc(O)c-2c1 | 2400 | –
12 | COc1c2cc(c(O[C@@H]3O[C@H](CO)[C@@H](O)[C@H](O)[C@H]3O)c1OC)CCCCC(=O)CCc1ccc(O)c-2c1 | 2300 | –
13 | COc1c2cc(c(O)c1OC)CCCCC(=O)CCc1ccc(O)c-2c1 [MYRICANONE] | 2900 | –
14 | COc1c2cc(c(O[C@@H]3O[C@H](CO)[C@@H](O)[C@H](O)[C@H]3O)c1OC)CCCC[C@H](O)CCc1ccc(O)c-2c1 | 2400 | –
15 | COc1c2cc(c(O)c1OC)CCCC(=O)[C@@H](O)Cc1ccc(O)c-2c1 | 5100 | –
16 | COc1c2cc(c(OC)c1OC)-c1cc(ccc1O)[C@H](O)CC(=O)CCCC2 | 4600 | –
17 | COc1c2cc(c(O)c1OC)CCCC[C@@H](OC(C)=O)CCc1ccc(O)c-2c1 | 3700 | –
18 | COc1c2cc(c(O[C@@H]3O[C@H](CO)[C@@H](O)[C@H](O)[C@H]3O)c1OC)CCCC(=O)[C@@H](O)Cc1ccc(O)c-2c1 | 1600 | –
